# In patent US12162890B2 (Novartis AG, priority 2015, dated 2024):
# Target: HEK293 cells with stable expression of the GRIN1 gene and tetracycline-inducible expression of the GRIN2B gene (NMDA receptor, NR2B) (Homo sapiens, UniProt Q13224)
# Assay: Fluo-8 Ca2+ flux assay: reversal of Ro 25-6981-mediated suppression of the Ca2+ response to co-agonist (glutamate/glycine); further: test concentration or dose not given here
# Type: cell-based
# Details: reversal of the Ro 25-6981 suppression of the Ca2+ response to co-agonist (glutamate/glycine)
# Sequence of HEK293 cells with stable expression of the GRIN1 gene and tetracycline-inducible expression of the GRIN2B gene (NMDA receptor, NR2B) (Q13224 27-1484, other chains not shown): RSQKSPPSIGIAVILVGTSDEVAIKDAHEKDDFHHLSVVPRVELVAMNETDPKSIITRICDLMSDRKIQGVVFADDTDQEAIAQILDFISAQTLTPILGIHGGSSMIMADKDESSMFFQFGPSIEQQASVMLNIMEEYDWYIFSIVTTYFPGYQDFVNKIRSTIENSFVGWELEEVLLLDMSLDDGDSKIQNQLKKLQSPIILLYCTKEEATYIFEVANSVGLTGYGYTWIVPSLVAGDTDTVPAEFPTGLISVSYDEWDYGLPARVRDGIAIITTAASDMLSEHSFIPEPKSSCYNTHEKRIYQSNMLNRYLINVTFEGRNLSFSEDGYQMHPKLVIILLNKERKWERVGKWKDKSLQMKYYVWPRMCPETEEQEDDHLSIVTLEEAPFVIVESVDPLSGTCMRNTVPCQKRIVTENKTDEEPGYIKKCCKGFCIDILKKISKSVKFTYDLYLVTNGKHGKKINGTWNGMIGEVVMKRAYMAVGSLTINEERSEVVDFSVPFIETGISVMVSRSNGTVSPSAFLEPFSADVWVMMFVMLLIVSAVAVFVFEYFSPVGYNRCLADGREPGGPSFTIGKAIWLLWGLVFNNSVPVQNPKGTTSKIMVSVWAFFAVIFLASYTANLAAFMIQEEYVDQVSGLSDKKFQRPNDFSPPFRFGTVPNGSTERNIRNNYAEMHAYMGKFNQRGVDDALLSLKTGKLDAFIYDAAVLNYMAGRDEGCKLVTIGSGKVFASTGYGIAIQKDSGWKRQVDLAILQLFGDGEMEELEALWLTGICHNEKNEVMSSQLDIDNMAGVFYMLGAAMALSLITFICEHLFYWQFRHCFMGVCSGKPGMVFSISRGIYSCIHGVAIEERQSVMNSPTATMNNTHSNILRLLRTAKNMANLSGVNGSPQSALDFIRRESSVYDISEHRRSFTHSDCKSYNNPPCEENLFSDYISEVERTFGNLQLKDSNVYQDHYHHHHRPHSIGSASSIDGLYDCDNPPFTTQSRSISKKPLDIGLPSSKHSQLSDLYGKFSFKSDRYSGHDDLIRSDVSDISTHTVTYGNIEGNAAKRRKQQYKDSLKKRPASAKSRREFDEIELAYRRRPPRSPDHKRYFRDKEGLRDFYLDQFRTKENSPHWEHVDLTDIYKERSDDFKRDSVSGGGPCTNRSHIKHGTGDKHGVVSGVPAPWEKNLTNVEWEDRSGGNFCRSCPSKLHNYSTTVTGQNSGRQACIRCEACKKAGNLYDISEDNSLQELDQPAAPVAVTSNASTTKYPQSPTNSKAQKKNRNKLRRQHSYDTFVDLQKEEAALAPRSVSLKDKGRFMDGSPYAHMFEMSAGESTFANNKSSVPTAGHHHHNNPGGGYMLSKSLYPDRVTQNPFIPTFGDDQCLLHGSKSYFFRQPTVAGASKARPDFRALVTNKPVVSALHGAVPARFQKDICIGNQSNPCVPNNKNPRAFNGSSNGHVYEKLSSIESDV
row,Response Recovered (%),SMILES
1,54%,"O=C(Cn1ccc2scc(-c3ccc(Cl)c(Cl)c3)c2c1=O)N1CC(F)C1 [Example 33, 3-(3,4-dichlorophenyl)-5-(2-(3-fluoroazetidin-1-yl)-2-oxoethyl)thieno[3,2-c]pyridin-4(5H)-one]"
2,77%,"O=C(Cn1cnc2[nH]cc(-c3ccc(Cl)c(Cl)c3)c2c1=O)N1CCC(F)C1 (centres unmarked) [Example 175, 5-(3,4-dichlorophenyl)-3-(2-(3-fluoropyrrolidin-1-yl)-2-oxoethyl)-3H-pyrrolo[2,3-d]pyrimidin-4(7H)-one]"
3,25%,"O=C(Cn1ccc2cccc(-c3ccc(Cl)c(F)c3)c2c1=O)N1CCC(F)C1 (centres unmarked) [Example 306, 8-(4-chloro-3-fluorophenyl)-2-(2-(3-fluoropyrrolidin-1-yl)-2-oxoethyl)isoquinolin-1(2H)-one]"
4,96%,"CCC1(F)CN(C(=O)Cn2ccc3scc(-c4ccc(Cl)c(Cl)c4)c3c2=O)C1 [Example 50, 3-(3,4-dichlorophenyl)-5-(2-(3-ethyl-3-fluoroazetidin-1-yl)-2-oxoethyl)thieno[3,2-c]pyridin-4(5H)-one]"
5,130%,"Cc1cc(-c2csc3ccn(CC(=O)N4CC(C)(F)C4)c(=O)c23)ccc1Cl [Example 22, 3-(4-chloro-3-methylphenyl)-5-(2-(3-fluoro-3-mehtylazetidin-1-yl)-2-oxoethyl)thieno[3,2-c]pyridin-4(5H)-one]"
6,18%,"Cc1nc(-c2ccc(F)c(Cl)c2)c2c(=O)n(CC(=O)N3CCC(F)C3)ccn12 (centres unmarked) [Example 428, 1-(3-chloro-4-fluorophenyl)-7-(2-(3-fluoropyrrolidin-1-yl)-2-oxoethyl)-3-methylimidazo[1,5-a]pyrazin-8(7H)-one]"
7,22%,"O=C(Cn1ccc2scc(-c3cnc(F)c(Cl)c3)c2c1=O)N1CCC(F)C1 (centres unmarked) [Example 37, 3-(5-chloro-6-fluoropyridin-3-yl)-5-(2-(3-fluoropyrrolidin-1-yl)-2-oxoethyl)thieno[3,2-c]pyridin-4(5H)-one]"
8,75%,"Cc1ncc(-c2csc3ccn(CC(=O)N4CC(C)(F)C4)c(=O)c23)cc1Cl [Example 90, 3-(5-chloro-6-methylpyridin-3-yl)-5-(2-(3-fluoro-3-methylazetidin-1-yl)-2-oxoethyl)thieno[3,2-c]pyridin-4(5H)-one]"
9,23%,"COCc1cn(CC(=O)N2CCC(F)C2)c(=O)c2c(-c3ccc(F)c(Cl)c3)csc12 (centres unmarked) [Example 128, 3-(3-chloro-4-fluorophenyl)-5-(2-(3-fluoropyrrolidin-1-yl)-2-oxoethyl)-7-(methoxymethyl) thieno[3,2-c]pyridin-4(5H)-one]"
10,35%,"CC1(F)CN(C(=O)Cn2ccc3scc(-c4cnc(F)c(Cl)c4)c3c2=O)C1 [Example 19, 3-(5-chloro-6-fluoropyridin-3-yl)-5-(2-(3-fluoro-3-methylazetidin-1-yl)-2-oxoethyl)thieno[3,2-c]pyridin-4(5H)-one]"
11,66%,"O=C(Cn1ccc2c(c(-c3ccc(F)c(Cl)c3)cn2C2CC2)c1=O)N1CCC(F)C1 (centres unmarked) [Example 232, 3-(3-chloro-4-fluorophenyl)-1-cyclopropyl-5-(2-(3-fluoropyrrolidin-1-yl)-2-oxoethyl)-1H-pyrrolo[3,2-c]pyridin-4(5H)-one]"
12,−1%,"O=C(Cn1ncc2scc(-c3ccc(Cl)c(C(F)(F)F)c3)c2c1=O)N1CCC(F)C1 (centres unmarked) [Example 344, 3-(4-chloro-3-(trifluoromethyl)phenyl)-5-(2-(3-fluoropyrrolidin-1-yl)-2-oxoethyl)thieno[2,3-d]pyridazin-4(5H)-one]"
13,67%,"CC1CN(C(=O)Cn2ccc3scc(-c4ccc(F)c(Cl)c4)c3c2=O)C1 [Example 48, 3-(3-chloro-4-fluorophenyl)-5-(2-(3-methylazetidin-1-yl)-2-oxoethyl)thieno[3,2-c]pyridin-4(5H)-one]"

# The next lines start with the molecule.
row,SMILES,Response Recovered (%)
1,"O=C(Cn1cnc2snc(-c3ccc(Cl)cc3)c2c1=O)N1CCCC1C(F)(F)F (centres unmarked) [Example 382, 3-(4-chlorophenyl)-5-(2-oxo-2-(2-(trifluoromethyl)pyrrolidin-1-yl)ethyl)isothiazolo[5,4-d]pyrimidin-4(5H)-one]",9%
2,"O=C(Cn1ncc2scc(-c3ccc(Cl)c(C(F)(F)F)c3)c2c1=O)N1CC(F)(F)C1 [Example 339, 3-(4-chloro-3-(trifluoromethyl)phenyl)-5-(2-(3,3-difluoroazetidin-1-yl)-2-oxoethyl)thieno[2,3-d]pyridazin-4(5H)-one]",20%
3,"CCC1(F)CN(C(=O)Cn2ccc3scc(-c4ccc(F)c(C(F)(F)F)c4)c3c2=O)C1 [Example 51, 5-(2-(3-ethyl-3-fluoroazetidin-1-yl)-2-oxoethyl)-3-(4-fluoro-3-(trifluoromethyl)phen-yl)thieno[3,2-c]pyridin-4(5H)-one]",57%
4,"O=C(Cn1cc(-c2ccccc2)c2scc(-c3ccc(Cl)c(C(F)(F)F)c3)c2c1=O)N1CCCC1 [Example 102, 3-(4-chloro-3-(trifluoromethyl)phenyl)-5-(2-oxo-2-(pyrrolidin-1-yl)ethyl)-7-phenylthieno[3,2-c]pyridin-4(5H)-one]",23%
5,"O=C(Cn1cnc2csc(-c3ccc(F)c(Cl)c3)c2c1=O)N1CC(F)(F)C1 [Example 360, 5-(3-chloro-4-fluorophenyl)-3-(2-(3,3-difluoroazetidin-1-yl)-2-oxoethyl)thieno[3,4-d]pyrimidin-4(3H)-one]",39%
6,"CC1(F)CN(C(=O)Cn2ccc3c(c(-c4ccc(F)c(C(F)(F)F)c4)cn3C3CC3)c2=O)C1 [Example 287, 1-cyclopropyl-3-(4-fluoro-3-(trifluoromethyl)phenyl)-5-(2-(3-fluoro-3-methylazetidin-1-yl)-2-oxoethyl)-1H-pyrrolo[3,2-c]pyridin-4(5H)-one]",140%
7,"CC1(F)CN(C(=O)Cn2ccn3c(C4CC4)nc(-c4ccc(F)c(Cl)c4)c3c2=O)C1 [Example 436, 1-(3-chloro-4-fluorophenyl)-3-cyclopropyl-7-(2-(3-fluoro-3-methylazetidin-1-yl)-2-oxoethyl)imidazo[1,5-a]pyrazin-8(7H)-one]",100%
8,"O=C(Cn1ccc2c(c(-c3ccc(F)c(Cl)c3)cn2-c2ccccn2)c1=O)N1CCC(F)C1 (centres unmarked) [Example 228, 3-(4-chloro-4-fluorophenyl)-5-(2-(3-fluoropyrrolidin-1-yl)-2-oxoethyl)-1-(pyridin-2-yl)-1H-pyrrolo[3,2-c]pyridin-4(5H)-one]",39%
9,"O=C(Cn1cc(CN2CCCC2)c2scc(-c3ccc(Cl)c(Cl)c3)c2c1=O)N1CCC(F)C1 (centres unmarked) [Example 121, 3-(3,4-dichlorophenyl)-5-(2-(3-fluoropyrrolidin-1-yl)-2-oxoethyl)-7-(pyrrolidin-1-ylmethyl)thieno[3,2-c]pyridin-4(5H)-one]",59%
10,"Cc1cn(CC(=O)N2CCCC2)c(=O)c2c(-c3ccc(Cl)c(C(F)(F)F)c3)csc12 [Example 106, 3-(4-chloro-3-(trifluoromethyl)phenyl)-7-methyl-5-(2-oxo-2-(pyrrolidin-1-yl)ethyl)thieno[3,2-c]pyridin-4(5H)-one]",76%
11,"O=C(Cn1ccc2scc(-c3ccc(F)c(C(F)(F)F)c3)c2c1=O)N1CC2C(C1)C2(F)F (centres unmarked) [Example 72, 5-(2-(6,6-difluoro-3-azabicyclo[3.1.0]hex-an-3-yl)-2-oxoethyl)-3-(4-fluoro-3-(trifluoromethyl)phen-yl)thieno[3,2-c]pyridin-4(5H)-one]",37%
12,"CC1(NC(=O)OC(C)(C)C)CN(C(=O)Cn2ccc3scc(-c4ccc(Cl)c(Cl)c4)c3c2=O)C1 [Example 73, tert-butyl (1-(2-(3-(3,4-dichlorophenyl)-4-oxothieno[3,2-c]pyridin-5(4H)-yl)acetyl)-3-methylazetidin-3-yl)carbamate]",9.8%
13,"O=C(Cn1ccn2ccc(-c3ccc(F)c(C(F)(F)F)c3)c2c1=O)N1CCC(F)C1 (centres unmarked) [Example 390, 8-(4-fluoro-3-(trifluoromethyl)phenyl)-2-(2-(3-fluoropyrrolidin-1-yl)-2-oxoethyl)pyrrolo[1,2-a]pyrazin-1(2H)-one]",51%
14,"O=C(Cn1ccc2cccc(-c3ccc(Cl)c(F)c3)c2c1=O)N1CCCC1 [Example 307, 8-(4-chloro-3-fluorophenyl)-2-(2-oxo-2-(pyrrolidin-1-yl)ethyl)isoquinolin-1(2H)-one]",24%
15,"O=C(Cn1ccn2ncc(-c3ccc(F)c(Cl)c3)c2c1=O)N1CC(F)(F)C1 [Example 328, 3-(3-chloro-4-fluorophenyl)-5-(2-(3,3-difluoroazetidin-1-yl)-2-oxoethyl)pyrazolo[1,5-a]pyrazin-4(5H)-one]",29%
16,"O=C(Cn1cnc2[nH]nc(-c3ccc(Cl)c(C(F)(F)F)c3)c2c1=O)N1CC(F)(F)C1 [Example 320, 3-(4-Chloro-3-trifluoromethyl-phenyl)-5-[2-(3,3-difluoro-azetidin-1-yl)-2-oxo-ethyl]-1,5-dihydro-pyrazolo[3,4-d]pyrimidin-4-one]",9%
17,"COCCn1cc(-c2ccc(F)c(Cl)c2)c2c(=O)n(CC(=O)N3CCCC3)cnc21 [Example 186, 5-(3-chloro-4-fluorophenyl)-7-(2-methoxyethyl)-3-(2-oxo-2-(pyrrolidin-1-yl)ethyl)-3H-pyrrolo[2,3-d]pyrimidin-4(7H)-one]",18%
18,"Cn1cc(-c2ccc(Cl)c(C(F)(F)F)c2)c2c(=O)n(CC(=O)N3CC(F)(F)C3)cnc21 [Example 168, 5-(4-chloro-3-(trifluoromethyl)phenyl)-3-(2-(3,3-difluoroazetidin-1-yl)-2-oxoethyl)-7-methyl-3H-pyrrolo[2,3-d]pyrimidin-4(7H)-one]",55%
19,"O=C(Cn1ccc2c(c(-c3ccc(F)c(C(F)(F)F)c3)cn2CCF)c1=O)N1CCC(F)C1 (centres unmarked) [Example 252, 3-(4-fluoro-3-(trifluoromethyl)phenyl)-1-(2-fluoroethyl)-5-(2-(3-fluoropyrrolidin-1-yl)-2-oxoethyl)-1H-pyrrolo[3,2-c]pyridin-4(5H)-one]",96%
